Measurements from patent US20240415787A1, “COMPOSITION FOR TREATING OR PREVENTING OBESITY OR OBESITY-ASSOCIATED LIVER DISEASE, COMPRISING VERBENONE DERIVATIVES” (SHIN POONG PHARMACEUTICAL CO., LTD., priority 2021, published 2024).
Values belong to the compound of their own block, whether it stands above or below them.

Legend:
[1] = Solubility in saline / water; type: physicochemical
[2] = Glucose tolerance test (GTT); type: in vivo; details: HFD-induced mice; vs HFD
Excerpt: (§1) Male C57BL/6 mice (6 weeks old, 20 g body weight) were purchased from Orient-Bio (Seongnam, Korea). All mice were maintained in a 12-hr light/dark cycle and fed ad libitum. To minimize environmental differences, mice were allowed 2 weeks for acclimation before the start of experiments. For diet-induced NAFLD experiments, mice were fed either an HFD (60% of kcal in fat, D12492, Research Diets, NJ, USA) or a normal chow diet (ND) for 20 weeks. All experimental protocols and procedures were approved by the Ethics Committee and the Institutional Animal Care and Use Committee of Korea University College of Medicine (Approval No. KOREA-2019-0026).
(§2) The mice were subdivided into vehicle and SP-1154 (50 mg/kg as SP-8356) groups. SP-1154 was administrated to the mice via tab water and the dose of drug was determined by daily water consumption (6 mL/day) and body weights, which were measured every week.
(§3) For GTT, glucose (2 g/kg body weight) was orally administered to mice after overnight fasting, and blood was drawn to measure glucose concentrations at indicated times thereafter. For ITT, insulin (1.5 insulin units/kg body weight) was intraperitoneally injected into mice after fasting for 4 hours, and blood was drawn to measure blood glucose at indicated times. Insulin concentrations were measured at each indicated time in serum collected from the mice subjected to GTT.

VAT inflammation = assay: 18F-FDG PET/CT imaging of VAT metabolic activity (SUVmax); type: in vivo, mice
Excerpt: as §1
The mice were subdivided into vehicle and SP-1154 (50 mg/kg as SP-8356) groups. SP-1154 was administrated to the mice via tab water and the dose of drug was determined by daily water consumption (6 mL/day) and body weights, which were measured every week. […]
Images were analyzed by two experienced nuclear medicine physicians (KP and HWK) using commercially available software (Syngo. via, Siemens Healthcare, Erlangen, Germany). […] For the evaluation of VAT metabolic activity, region on interest (ROI) was placed along the intra-abdominal fat on each slice and the maximum standardized uptake value (SUVmax) was measured, as previously described. […]

TGF-β1 = assay: qRT-PCR of TGF-β1 mRNA in VAT of HFD-induced mice; type: in vivo; details: HFD vs HFD with SP-1154, 20 weeks
Excerpt: as §1, §2
(§4) Total RNA was extracted from VAT samples using the Trizol reagent (Invitrogen, Carlsbad, CA, USA) and the generation of cDNA was performed using the reverse transcription reaction kit (iScript cDNA synthesis kit, Bio-Rad, Hercules, CA, USA). Gene expression was assessed using SYBR Green mixture (iQTM SYBR Green Supermix, Bio-Rad, Hercules, CA, USA) and an iCycler PCR thermocycler (Bio-Rad, Hercules, CA, USA). […]

TGF-βR1 = assay: qRT-PCR of TGF-βR1 mRNA in VAT of HFD-induced mice; type: in vivo; details: HFD vs HFD with SP-1154, 20 weeks
Excerpt: as §1, §2, §4

[3] = Blood analysis (serum AST, ALT, total cholesterol); type: in vivo, mice
Excerpt: as §1, §2
Blood samples were collected immediately before sacrifice. The levels of AST (aspartate aminotransferase), ALT (alanine aminotransferase), total cholesterol, and triglyceride in serum were measured using a FUJI DRI-Chemiclinical Chemistry Analyzer (FUJI DRI-CHEM 4000i, Fuji Film, Tokyo, Japan).

[4] = system: phosphorylation of Smad2/3; assay: Western blot of Smad2/3 phosphorylation in VAT of HFD-induced mice; type: in vivo; details: 50 mg/kg as SP-8356 via water, 20 weeks, vs HFD
Excerpt: as §1, §2
VAT was lysed in RIPA buffer (Thermo Fisher Scientific, Waltham, MA, USA) with protease inhibitor (GeneDepot, Barker, TX, USA). The protein concentration was quantified using the BCA protein assay kit (Thermo Fisher Scientific, Waltham, MA, USA). […] Protein bands were detected using the ECL assay kit (GE Healthcare, Chicago, IL, USA).

[5] = Body weight and food intake during 20-week HFD study; type: in vivo; details: HFD-induced mice, 50 mg/kg as SP-8356, 20 weeks; vs HFD
Excerpt: as §1, §2

adipocytes in VAT = assay: Histopathology of VAT: adipocyte surface area; type: in vivo, mice; details: 20 weeks of HFD, vs HFD
Excerpt: as §1, §2
(§5) Mice were sacrificed after 20 weeks of drug administration by using the CO2 chamber. […] Adipocyte surface area of a minimum of 300 cells per group was measured using ImageJ software (version 1.45 s, Bethesda, MD, USA), as previously described. Hepatic steatosis was assessed using three-scale scoring system based on H&E-stained liver: score 1 (mild, 5-33%); score 2 (moderate, 34-66%); score 3 (severe, >66%). […]

[6] = system: HFD-induced liver steatosis; assay: CT measurement of liver density (Hounsfield units); type: in vivo, mice; details: measured in HU, vs HFD
Excerpt: as §1, §2
^18F-FDG PET/CT was performed using a dedicated small animal PET/CT scanner (eXplore Vista DR PET/CT, GE Healthcare, Milwaukee, WI, USA). Mice were not fasted before taking examination and anesthetized with 2% isoflurane in oxygen (1 L/min) during the examination. PET/CT image acquisition was started 40 min after the injection of 18.5 MBq/0.1 mL of ^18F-FDG via the tail vein. Static PET images were acquired for 20 min, followed by CT scan (40 kV, 250 uA). […]

[7] = Insulin tolerance test (ITT); type: in vivo; details: HFD-induced mice; vs HFD
Excerpt: as §1, §2, §3

GLUT4 = GLUT4 expression in VAT (immunostaining, qRT-PCR); type: in vivo, mice; details: 20 weeks of HFD, vs HFD
Excerpt: as §1, §2
(§6) Tissues were incubated with anti-CD68 (ab 125212, Abcam, Cambridge, MA, USA), anti-glucose transporter 1 (GLUT1) (ab652, Abcam, Cambridge, MA, USA), and anti-GLUT4 (ab654, Abcam, MA, USA). Alexa Fluor 594 (Invitrogen, Carlsbad, CA, USA) was used as secondary antibody. All fluorescence images were acquired with Zeiss Axio Scan.Z1 (Carl Zeiss, Jena, Germany). […]

CD68 = CD68 immunohistochemistry of VAT; type: in vivo, mice; details: IHC on harvested VAT; vs HFD
Excerpt: as §1, §2, §5

[8] = Conversion of prodrug to SP-8356
[9] = system: HFD-induced liver steatosis; assay: Liver weight and liver steatosis score of harvested liver; type: in vivo, mice; details: vs HFD
Excerpt: as §1, §2, §5

[10] = system: macrophage infiltration into VAT; assay: Flow cytometry of F4/80+CD11b+ macrophages in VAT; type: in vivo, mice; details: vs HFD
Excerpt: as §1, §2
Cells were suspended in 0.1 mL of fluorescence-activated cell sorting (FACS) buffer (phosphate-buffered saline; PBS with 5% fetal bovine serum; FBS) and incubated with Fc blocker (BD Bioscience, San Jose, CA, USA) at room temperature for 10 min, followed by an additional 30 min with anti-CD45 APC-Cy7, anti-F4/80 PE, and anti-CD11b-PerCP-Cy5.5 (Biolegend, San Diego, CA, USA) antibodies according to the manufacturer's recommendation. […]

GLUT1 = GLUT1 expression in VAT (immunostaining, qRT-PCR); type: in vivo, mice; details: 20 weeks of HFD, vs HFD
Excerpt: as §1, §2, §6

C-reactive protein (CRP) = assay: ELISA of serum C-reactive protein; type: in vivo, mice
Excerpt: as §1, §2
Serum concentration of C-reactive protein (CRP) was determined using a commercially available ELISA kit (ab157712, Abcam, Cambridge, MA, USA) according to the manufacturer's instruction.

[11] = Efficacy of suspension versus soluble prodrug form; details: suspension in saline
[12] = normal mice vs SP-1154-treated mice

Compound: COc1cc(/C=C/C2=CC(=O)[C@H]3C[C@@H]2C3(C)C)cc(OC(=O)[C@@H](N)C(C)C)c1OC(=O)[C@@H](N)C(C)C.Cl.Cl [SP-1154, (2S,2'S)-5-((E)-2-((1R,5S)-6,6-dimethyl-4-oxobicyclo[3.1.1]hept-2-en-2-yl)vinyl)-3-methoxy-1,2-phenylene bis(2-amino-3-methylbutanoate)-dihydrochloride]
water solubility ([1]; water): high
glucose homeostasis (GTT) [2]: significantly improved
VAT SUVmax (VAT inflammation; 18F-FDG PET/CT after 20 weeks of HFD, vs HFD): significantly reduced
VAT SUVmax, difference to normal mice (VAT inflammation; [12]): no significant difference
mRNA expression level of TGF-β1 in VAT (TGF-β1): no significant difference
mRNA expression level of TGF-βR1 in VAT (TGF-βR1): no significant difference
serum total cholesterol ([3]; HFD vs HFD with SP-1154): no significant difference
level of ALT ([3]; serum, HFD-induced mice): improved
level of AST ([3]; serum, HFD-induced mice): improved
phosphorylation of Smad2/3 in VAT [4]: inhibited
HFD-induced body weight gain [5]: significantly attenuated
adipocyte size (adipocytes in VAT): significant reduction
liver density [6]: significantly enhanced
insulin resistance (ITT) [7]: significantly improved
GLUT4 expression (GLUT4): increased
expression of CD68 in VAT (CD68): suppressed
conversion of prodrug to SP-8356 [8]: converted to SP-8356 very quickly
liver steatosis score ([9]; H&E-stained liver, three-scale scoring): significantly reduced
liver weight ([9]; harvested liver): significantly reduced
macrophage infiltration into VAT [10]: significantly prevented
GLUT1 expression (GLUT1): decreased
CRP levels, difference to normal mice (C-reactive protein (CRP); [12]): no significant difference
levels of CRP (C-reactive protein (CRP); serum, HFD-induced mice, vs HFD): significantly suppressed

solubility in saline ([1]; saline): does not dissolve well in saline
Compound: COc1cc(C=CC2=CC(=O)[C@H]3C[C@@H]2C3(C)C)cc(O)c1O [SP-8356, (1S,5R)-4-(3,4-dihydroxy-5-methoxystyryl)-6,6-dimethylbicyclo[3.1.1]hept-3-en-2-one]
efficacy when used as a suspension [11]: weak but significant
